Consider 8 molecules from article PMC7097893 (ACS Omega, 2020).

pKd: −log10 of the molar value. *1 amine or outer side, *2 acyl side, *3 side chain or, on linkers, in order; H or OH if unused. Where a SMILES comes first, the peptide text is derived from it. Bridges are numbered along the chain shown (N, C = ends). Biphenyl(4,4'-CH2)2 = c1cc(-c2ccc(C[*:2])cc2)ccc1C[*:1]

One data set can be described thus: circular dichroism. Particulars: 10 mM Tris-HCl; pH 7; 25 °C; 50 uM. For orientation: Circular dichroism is the unequal absorption of left and right circularly polarised light.
In data set [1] the target is galectin-3 (Gal-3) carbohydrate-binding domain. To be noted: read-out: Kd to Gal-3; cited from earlier work.
Data set [2] is classed as physicochemical. Particulars: pH 7.
Another data set addresses galectin-3 (Gal-3) (Homo sapiens, UniProt P17931). The format is binding.

Chain of galectin-3 (Gal-3) (P17931 whole entry): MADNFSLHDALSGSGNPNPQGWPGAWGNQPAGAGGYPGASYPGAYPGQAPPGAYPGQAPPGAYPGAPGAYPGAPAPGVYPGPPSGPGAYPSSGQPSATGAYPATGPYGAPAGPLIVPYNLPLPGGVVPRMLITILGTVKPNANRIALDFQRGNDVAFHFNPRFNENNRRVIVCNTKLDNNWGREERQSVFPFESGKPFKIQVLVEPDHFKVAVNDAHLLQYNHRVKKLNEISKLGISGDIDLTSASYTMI

In turn, `C[C@H](NC(=O)[C@H](CCCCN)NC(=O)[C@H](CCCCN)NC(=O)[C@@H]1CSCc2ccc(cc2)-c2ccc(cc2)CSC[C@H](NC(=O)[C@H](CCC(=O)O)NC(=O)[C@@H]2CCCN2C(=O)[C@H](C)NC(=O)CN)C(=O)N[C@@H](CCCCN)C(=O)N[C@@H](CCCNC(=N)N)C(=O)N[C@@H](CCCCN)C(=O)N[C@@H](CCC(=O)O)C(=O)N[C@@H](Cc2ccc(O)cc2)C(=O)N[C@@H](CCC(=O)O)C(=O)N1)C(=O)NCC(N)=O` (H-GAPECKRKEYECKKAG-NH2; linker 5-12 via Biphenyl(4,4'-CH2)2) yielded a helicity in the data set “circular dichroism” of 30%.

Turning to `C[C@H](NC(=O)CN)C(=O)N[C@@H](CCC(N)=O)C(=O)N[C@@H](CCC(=O)O)C(=O)N[C@H]1CSCc2ccc(cc2)-c2ccc(cc2)CSC[C@@H](C(=O)N[C@@H](CCCCN)C(=O)N[C@@H](CCCCN)C(=O)N[C@@H](C)C(=O)NCC(N)=O)NC(=O)[C@H](C)NC(=O)[C@@H]2CCCN2C(=O)[C@H](CCC(=O)O)NC(=O)[C@H](CCCCN)NC(=O)[C@@H]2CCCN2C(=O)[C@@H]2CCCN2C1=O` (H-GAQECPPKEPACKKAG-NH2; linker 5-12 via Biphenyl(4,4'-CH2)2), the helicity in the data set “circular dichroism” is 14%.

With `CC(C)[C@@H]1NC(=O)[C@@H](NC(=O)[C@H](CCC(=O)O)NC(=O)[C@H](CCC(N)=O)NC(=O)[C@H](C)NC(=O)CN)CSCc2ccc(cc2)-c2ccc(cc2)CSC[C@@H](C(=O)N[C@@H](CCCCN)C(=O)N[C@@H](CO)C(=O)N[C@@H](C)C(=O)NCC(N)=O)NC(=O)[C@H](CO)NC(=O)[C@H](CCC(N)=O)NC(=O)[C@H](CCC(=O)O)NC(=O)[C@H](CCCCN)NC(=O)[C@H](Cc2ccc(O)cc2)NC1=O` (H-GAQECVYKEQSCKSAG-NH2; linker 5-12 via Biphenyl(4,4'-CH2)2), the helicity in “circular dichroism” is 32%.

As to `CC(=O)N[C@H]1C(O)O[C@H](CO)[C@@H](O[C@@H]2O[C@H](CO)[C@H](O)[C@H](O)[C@H]2O)[C@@H]1O` (some centres unmarked) [N-acetyllactosamine], in data set [1], the pKd (usually −log10 of the Kd, conventionally taken in molar units) was 3.70.

As to H-GAAECAAKEAACKAAG-NH2 [control], in data set [2], the “helicity (α-helical content)” value was determined as 3.4%.

As to “H-GAPECKRKEYECKKAG-GGGK-(flu)-NH2 [p10-flu]”, the “Gal-3 binding of non-stapled peptide (fluorescent intensity change)” value at galectin-3 (Gal-3) is recorded as “did not show any Gal-3 binding”.

As for “H-GAQECPPKEPACKKAG-GGGK-(flu)-NH2 (sidechain bridge or staple) [p8-flu-BP]”, on galectin-3 (Gal-3), the “effect of excess lactose on fluorescent intensity change with Gal-3” value is reported as “did not significantly affect”.

For “H-GAQECVYKEQSCKSAG-GGGK-(flu)-NH2 [p4-flu]”, the “Gal-3 binding of non-stapled peptide (fluorescent intensity change)” value on galectin-3 (Gal-3) is “did not show significant fluorescent changes”.
